Measurements: patent US20110275559A1, “Long-Acting Y2 and/or Y4 Receptor Agonists” (Novo Nordisk A/S, priority 2008, published 2011)
Like-named read-outs stand apart in the source and are kept apart here. *1 amine or outer side, *2 acyl side, *3 side chain or, on linkers, in order; H or OH if unused. Where a SMILES comes first, the peptide text is derived from it. Side-chain parts run from the residue outwards. The star is where a group is joined. C20 diacid = O=C(O)CCCCCCCCCCCCCCCCCCC(=O)*; γGlu = O=C(O)[C@H](CCC(=O)[*:2])N[*:1]; Trx = NC[C@H]1CC[C@H](C(=O)O)CC1; AEEA = NCCOCCOCC(=O)O

Assays:
[1] = biological target: T1, Y2 receptor (Homo sapiens, UniProt P49146); assay: Y2 receptor ACTOne based FLIPR assay (cAMP biosensor); type: cell-based
T1 construct: host or cells: ACTOne HEK-293 cells
T1 sequence (P49146 1-381): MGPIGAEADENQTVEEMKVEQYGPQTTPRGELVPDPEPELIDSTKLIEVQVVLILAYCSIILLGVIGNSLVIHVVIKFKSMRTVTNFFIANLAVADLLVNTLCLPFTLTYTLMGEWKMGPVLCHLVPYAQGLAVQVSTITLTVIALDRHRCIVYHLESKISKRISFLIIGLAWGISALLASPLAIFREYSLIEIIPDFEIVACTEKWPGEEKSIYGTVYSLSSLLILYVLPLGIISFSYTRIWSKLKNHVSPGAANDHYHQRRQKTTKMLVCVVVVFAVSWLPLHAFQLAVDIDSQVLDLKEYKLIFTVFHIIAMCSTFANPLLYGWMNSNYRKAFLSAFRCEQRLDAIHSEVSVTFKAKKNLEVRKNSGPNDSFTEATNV

[2] = biological target: T2, Y4 receptor (Homo sapiens, UniProt P50391); assay: Y4 receptor ACTOne based FLIPR assay (cAMP biosensor); type: cell-based
T2 construct: host or cells: ACTOne HEK-293 cells
T2 sequence (P50391 whole entry): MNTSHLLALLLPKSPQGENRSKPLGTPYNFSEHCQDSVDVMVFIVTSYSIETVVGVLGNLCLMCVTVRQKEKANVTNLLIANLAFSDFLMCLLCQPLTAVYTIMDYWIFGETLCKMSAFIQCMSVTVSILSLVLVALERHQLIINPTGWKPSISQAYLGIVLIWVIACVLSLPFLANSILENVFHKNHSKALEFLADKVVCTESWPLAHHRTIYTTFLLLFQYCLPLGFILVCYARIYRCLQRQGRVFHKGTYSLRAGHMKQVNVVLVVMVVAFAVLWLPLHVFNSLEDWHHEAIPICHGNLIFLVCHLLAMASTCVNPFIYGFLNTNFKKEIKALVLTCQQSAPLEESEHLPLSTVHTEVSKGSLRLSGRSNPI
Excerpt: ACTOne™ is an easily scaleable cAMP biosensor HTS platform for measurement of Gs and Gi coupled 7™ receptor signalling from BD Biosciences (San Jose, Calif.). The cells express a biosensor developed around a modified rat olfactory cyclic nucleotide gated (CNG) calcium channel—a fairly non-discriminatory ion channel that responds to cAMP and cGMP. The CNG has been engineered to be cAMP selective and thus function as a cAMP responsive biosensor that signals through calcium or membrane potential responsive dyes. Y2 or Y4 receptor expressing ACTOne HEK-293 cells are obtained from BD Biosciences. The cells are loaded with a calcium responsive dye that only distributes in the cytoplasm. Probenecid, an inhibitor of the organic anion transporter is added to prevent the dye from leaving the cell. A phosphodiesterase inhibitor is added to prevent formatted cAMP from being degraded. Isoproterenol (an β1/β2 agonist) is added to activate the adenylate cyclase. When an Y2 or Y4 receptor agonist is added, the adenylate cyclase is inactivated. The decreased calcium concentration in the cytoplasm is then detected as an increase in fluorescence. Together with the test substance, Isoproterenol at a concentration matching EC80, is added to all wells. • The cells are plated out in Greiner 384-well plates. […] The plates are covered with tinfoil to avoid light (the dye can be excited by the daylight, which results in higher baseline and variation). • The FLIPR (FLIPRtetra from Molecular Devices, CA, USA) adds 1 μl sample and 1 μl isoproterenol (0.05 μM final concentration) at the same time. • The fluorescence signal from the wells is measured 330 seconds after sample addition on the FLIPR.

[3] = Mini-pig PK assay (plasma half-life); settings: Göttingen, minipig
Procedure, shortened: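 Catheterised mini-pigs received compound i.v. at 10 nmol/kg in pH 4.0 phosphate/NaCl/tween vehicle, or alternatively i.v. or s.c. at 1–30 nmol/kg in pH 8.0 K2HPO4/tween. Stabilised plasma was sampled up to 13 days and assayed by LC-MS (LLOQ 2 nM). Half-life came from non-compartmental analysis of individual animal profiles.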

[4] = Table 2, PP analogues, ACTOne HEK-293 cells, read-out: Y2 cAMP EC50
[5] = Table 2, PP analogues, ACTOne HEK-293 cells, read-out: Y4 cAMP EC50

Compound `CC[C@H](C)[C@H](NC(=O)[C@H](Cc1ccc(O)cc1)NC(=O)[C@H](CCCNC(=N)N)NC(=O)[C@H](CCCNC(=N)N)NC(=O)[C@H](CC(C)C)NC(=O)[C@H](CC(=O)O)NC(=O)[C@H](C)NC(=O)[C@H](C)NC(=O)[C@H](Cc1ccc(O)cc1)NC(=O)[C@H](CCC(N)=O)NC(=O)[C@H](C)NC(=O)[C@H](CC(C)C)NC(=O)[C@H](CCC(N)=O)NC(=O)[C@H](CCC(=O)O)NC(=O)[C@@H]1CCCN1C(=O)[C@@H](NC(=O)[C@H](C)NC(=O)[C@H](CC(N)=O)NC(=O)[C@H](CC(=O)O)NC(=O)CNC(=O)[C@@H]1CCCN1C(=O)[C@H](Cc1ccc(O)cc1)NC(=O)[C@@H](NC(=O)[C@@H]1CCCN1C(=O)[C@H](CCC(=O)O)NC(=O)[C@H](CC(C)C)NC(=O)[C@@H]1CCCN1)C(C)C)[C@@H](C)O)C(=O)N[C@@H](CC(N)=O)C(=O)N[C@@H](CC(C)C)C(=O)N[C@@H](CC(C)C)C(=O)N[C@H](C(=O)N[C@@H](CCCCNC(=O)COCCOCCNC(=O)COCCOCCNC(=O)CC[C@H](NC(=O)[C@H]1CC[C@H](CNC(=O)CCCCCCCCCCCCCCCCCCC(=O)O)CC1)C(=O)O)C(=O)N1CCC[C@H]1C(=O)N[C@@H](CCCNC(=N)N)C(=O)N[C@@H](Cc1ccc(O)cc1)C(N)=O)[C@@H](C)O` [SEQ ID NO: 42, N-epsilon33-[2-(2-{2-[2-(2-{2-[(S)-4-Carboxy-4-({trans-4-[(19-carboxynonadecanoylamino)methyl]cyclohexanecarbonyl}amino)butyrylamino]-ethoxy}ethoxy)acetylamino]ethoxy}ethoxy)acetyl][Leu17,Leu30,Lys33]hPP2-36] (H-PLEPVYPGDNATPEQLAQYAADLRRYINLLTK([AEEA-AEEA-γGlu-Trx-C20 diacid])PRY-NH2) has an EC50 [1] greater than 1 µM, an EC50 [2] greater than 1 µM and a half-life ([3]; in vivo, iv, 7 nmol/kg) of 116 h. The half-life ([3]; male, in vivo, sc, 7 nmol/kg) was 167 h.

With `CC[C@H](C)[C@H](NC(=O)[C@H](Cc1ccc(O)cc1)NC(=O)[C@H](CCCNC(=N)N)NC(=O)[C@H](CCCNC(=N)N)NC(=O)[C@H](CC(C)C)NC(=O)[C@H](CC(=O)O)NC(=O)[C@H](C)NC(=O)[C@H](C)NC(=O)[C@H](Cc1ccc(O)cc1)NC(=O)[C@H](CCC(N)=O)NC(=O)[C@H](C)NC(=O)[C@H](CC(C)C)NC(=O)[C@H](CCC(N)=O)NC(=O)[C@H](CCC(=O)O)NC(=O)[C@@H]1CCCN1C(=O)[C@@H](NC(=O)[C@H](C)NC(=O)[C@H](CC(N)=O)NC(=O)[C@H](CC(=O)O)NC(=O)CNC(=O)[C@@H]1CCCN1C(=O)[C@H](Cc1ccc(O)cc1)NC(=O)[C@@H](NC(=O)[C@@H]1CCCN1C(=O)[C@H](CCC(=O)O)NC(=O)[C@H](CC(C)C)NC(=O)[C@@H]1CCCN1)C(C)C)[C@@H](C)O)C(=O)N[C@@H](CCCCNC(=O)COCCOCCNC(=O)COCCOCCNC(=O)CC[C@H](NC(=O)[C@H]1CC[C@H](CNC(=O)CCCCCCCCCCCCCCCCCCC(=O)O)CC1)C(=O)O)C(=O)N[C@@H](CC(C)C)C(=O)N[C@@H](CC(C)C)C(=O)N[C@H](C(=O)N[C@@H](CCCNC(=N)N)C(=O)N1CCC[C@H]1C(=O)N[C@@H](CCCNC(=N)N)C(=O)N[C@@H](Cc1ccc(O)cc1)C(N)=O)[C@@H](C)O` [SEQ ID NO: 44, N-epsilon29-[2-(2-{2-[2-(2-{2-[(S)-4-Carboxy-4-({trans-4-[(19-carboxynonadecanoylamino)methyl]cyclohexanecarbonyl}amino)butyrylamino]-ethoxy}ethoxy)acetylamino]ethoxy}ethoxy)acetyl][Leu17,Lys29,Leu30]hPP2-36] (H-PLEPVYPGDNATPEQLAQYAADLRRYIK([AEEA-AEEA-γGlu-Trx-C20 diacid])LLTRPRY-NH2) the EC50 [1, 4] was greater than 1 µM, the EC50 [2, 5] was greater than 0.89 µM and the half-life ([3]; iv, 4 nmol/kg) was 74 h. For the same compound, the half-life ([3]; male, sc, 4 nmol/kg) was 93 h.

In the case of `CC[C@H](C)[C@H](NC(=O)[C@H](Cc1ccc(O)cc1)NC(=O)[C@H](CCCCNC(=O)COCCOCCNC(=O)COCCOCCNC(=O)CC[C@H](NC(=O)[C@H]1CC[C@H](CNC(=O)CCCCCCCCCCCCCCCCCCC(=O)O)CC1)C(=O)O)NC(=O)[C@H](CCCNC(=N)N)NC(=O)[C@H](CC(C)C)NC(=O)[C@H](CC(=O)O)NC(=O)[C@H](C)NC(=O)[C@H](C)NC(=O)[C@H](Cc1ccc(O)cc1)NC(=O)[C@H](CCC(N)=O)NC(=O)[C@H](C)NC(=O)[C@H](CC(C)C)NC(=O)[C@H](CCC(N)=O)NC(=O)[C@H](CCC(=O)O)NC(=O)[C@@H]1CCCN1C(=O)[C@@H](NC(=O)[C@H](C)NC(=O)[C@H](CC(N)=O)NC(=O)[C@H](CC(=O)O)NC(=O)CNC(=O)[C@@H]1CCCN1C(=O)[C@H](Cc1ccc(O)cc1)NC(=O)[C@@H](NC(=O)[C@@H]1CCCN1C(=O)[C@H](CCC(=O)O)NC(=O)[C@H](CC(C)C)NC(=O)[C@@H]1CCCN1)C(C)C)[C@@H](C)O)C(=O)N[C@@H](CC(N)=O)C(=O)N[C@@H](CC(C)C)C(=O)N[C@@H](CC(C)C)C(=O)N[C@H](C(=O)N[C@@H](CCCNC(=N)N)C(=O)N1CCC[C@H]1C(=O)N[C@@H](CCCNC(=N)N)C(=O)N[C@@H](Cc1ccc(O)cc1)C(N)=O)[C@@H](C)O` [SEQ ID NO: 45, N-epsilon26-[2-(2-{2-[2-(2-{2-[(S)-4-Carboxy-4-({trans-4-[(19-carboxynonadecanoylamino)methyl]cyclohexanecarbonyl}amino)butyrylamino]-ethoxy}ethoxy)acetylamino]ethoxy}ethoxy)acetyl][Leu17,Lys26,Leu30]hPP2-36] (H-PLEPVYPGDNATPEQLAQYAADLRK([AEEA-AEEA-γGlu-Trx-C20 diacid])YINLLTRPRY-NH2; N-terminus and C-terminus assumed), the EC50 [1] is reported as greater than 1 µM, the EC50 [2] is reported as 0.007 µM and the half-life ([3]; in vivo, iv, 4 nmol/kg) is reported as 58 h.

`CC[C@H](C)[C@H](NC(=O)[C@H](Cc1ccc(O)cc1)NC(=O)[C@H](CCCNC(=N)N)NC(=O)[C@H](CCCNC(=N)N)NC(=O)[C@H](CC(C)C)NC(=O)[C@H](CC(=O)O)NC(=O)[C@H](C)NC(=O)[C@H](C)NC(=O)[C@H](Cc1ccc(O)cc1)NC(=O)[C@H](CCC(N)=O)NC(=O)[C@H](C)NC(=O)[C@H](CC(C)C)NC(=O)[C@H](CCC(N)=O)NC(=O)[C@H](CCC(=O)O)NC(=O)[C@@H]1CCCN1C(=O)[C@@H](NC(=O)[C@H](C)NC(=O)[C@H](CC(N)=O)NC(=O)[C@H](CC(=O)O)NC(=O)CNC(=O)[C@@H]1CCCN1C(=O)[C@H](Cc1ccc(O)cc1)NC(=O)[C@@H](NC(=O)[C@@H]1CCCN1C(=O)[C@H](CCC(=O)O)NC(=O)[C@H](CC(C)C)NC(=O)[C@@H]1CCCN1)C(C)C)[C@@H](C)O)C(=O)N[C@@H](CC(N)=O)C(=O)N[C@@H](CC(C)C)C(=O)N[C@@H](CC(C)C)C(=O)N[C@H](C(=O)N[C@@H](CCCNC(=N)N)C(=O)N1CCC[C@H]1C(=O)N[C@@H](CCCCNC(=O)COCCOCCNC(=O)COCCOCCNC(=O)CC[C@H](NC(=O)[C@H]1CC[C@H](CNC(=O)CCCCCCCCCCCCCCCCCCC(=O)O)CC1)C(=O)O)C(=O)N[C@@H](Cc1ccc(O)cc1)C(N)=O)[C@@H](C)O` [SEQ ID NO: 48, N-epsilon35-[2-(2-{2-[2-(2-{2-[(S)-4-Carboxy-4-({trans-4-[(19-carboxynonadecanoylamino)methyl]cyclohexanecarbonyl}amino)butyrylamino]-ethoxy}ethoxy)acetylamino]ethoxy}ethoxy)acetyl][Leu17,Leu30,Lys35]hPP2-36] (H-PLEPVYPGDNATPEQLAQYAADLRRYINLLTRPK([AEEA-AEEA-γGlu-Trx-C20 diacid])Y-NH2) gave an EC50 [1, 4] greater than 1 µM, an EC50 [2, 5] greater than 1 µM and a half-life ([3]; iv, 10 nmol/kg) of 93 h.
